Reference: patent US7504420B2, “Compounds which inhibit beta-secretase activity and methods of use” (CoMentis, Inc., priority 2005, dated 2009)

How the values were obtained:
[1] = test system: Aβ production in Chinese hamster ovary cells that over-express human APP695 with the London and Swedish mutations; experiment: Cellular Aβ IC50 determination (Aβ40 sandwich ELISA); conditions: Cricetulus griseus, CHO, 24 h, read-out: Cell, Aβ40, CHO cells over-expressing human APP695 (London and Swedish mutations), 24 h
cathepsin D = cathepsin D (Homo sapiens, UniProt P07339); experiment: Inhibition of cathepsin D catalytic activity (Ki); assay type: biochemical; conditions: pH 4.0, 37° C., read-out: CDK
Sequence of cathepsin D (P07339 65-412, species assumed): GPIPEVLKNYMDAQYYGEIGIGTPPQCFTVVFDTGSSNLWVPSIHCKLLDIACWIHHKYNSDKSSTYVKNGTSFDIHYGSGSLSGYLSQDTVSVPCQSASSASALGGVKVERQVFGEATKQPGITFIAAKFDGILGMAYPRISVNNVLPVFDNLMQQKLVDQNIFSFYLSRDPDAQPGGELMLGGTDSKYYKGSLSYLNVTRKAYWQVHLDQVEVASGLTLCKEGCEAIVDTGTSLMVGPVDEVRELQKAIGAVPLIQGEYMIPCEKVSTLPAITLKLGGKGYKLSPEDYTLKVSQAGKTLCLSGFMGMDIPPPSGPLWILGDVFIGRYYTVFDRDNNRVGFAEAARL
Protocol: A substrate peptide NH3-ELDLAVEFWHDR-CO2 (SEQ ID NO.:1) (used for inhibition assay of memapsin 2, memapsin 1, and cathepsin D) was dissolved at 2 mg/ml in DMSO and diluted 1:100 in 0.1 M sodium acetate, pH 4.0 just prior to assay. Inhibitor dissolved in DMSO was diluted into 0.1 M sodium acetate, pH 4.0 (1:100 dilution). A […] aliquot of the inhibitor solution in pH 4 buffer was combined with […] of 0.1 M sodium acetate containing 100-200 nM of memapsin 1, memapsin 2, or cathepsin D. Following a pre-incubation at 37° C., the proteolytic assay was initated by addition of […] of the substrate diluted into pH 4 buffer, and incubation continued at 37° C. Aliquots were removed at time intervals, and combined with an equal volume of MALDI-TOF matrix (α-hydroxycinnamic acid in acetone, 20 mg/ml) and immediately spotted in duplicate onto a stainless-steel MALDI sample plate. MALDI-TOF mass spectrometry was performed on a PE Biosystems Voyager DE instrument at the Molecular Biology Resource Center on campus. The instrument was operated at 25,000 accelerating volts in positive mode with a 150 ns delay. Ions with a mass-to-charge ratio (m/z) were detected in the range of 650-2000 atomic mass units. Data were analyzed by the Voyager Data Explorer module to obtain ion intensity data for mass species of substrates and corresponding products in a given mixture. Relative product formation was calculated as the ratio of signal intensity of the product to the sum of signal intensities of both product and the corresponding substrate. Relative product formed per unit time was obtained from non-linear regression analysis of the data representing the initial 15% formation of product using the model: 1−e^−kT, where k was the relative hydrolytic rate constant and T was time in seconds. Alternatively, relative hydrolytic rates were determined using a fluorogenic cleavage assay (Ermolieff, J. et al., Biochemistry, 39: 12450-12456 (2000)). Initial rates from either method were expressed relative to uninhibited controls and the inhibition constant Ki was determined by a non-linear fit to a tight-binding model of competitive inhibition (Bieth, J., Bayer-Symposium V: Proteinase Inhibitors, pp 463-469, Spinger-Varlag, Berlin (1994)). Results are shown in Table 1 above (M2K, CDK, and M1K columns represent, respectively, the K1 values obtained for memapsin 2, cathepsin D and memapsin 1).

memapsin 2 = memapsin 2 (Homo sapiens, UniProt P56817); experiment: Inhibition of memapsin 2 catalytic activity (Ki); assay type: biochemical; conditions: memapsin 2, pH 4, 37° C.; read-out: M2K
Sequence of memapsin 2 (P56817 46-501): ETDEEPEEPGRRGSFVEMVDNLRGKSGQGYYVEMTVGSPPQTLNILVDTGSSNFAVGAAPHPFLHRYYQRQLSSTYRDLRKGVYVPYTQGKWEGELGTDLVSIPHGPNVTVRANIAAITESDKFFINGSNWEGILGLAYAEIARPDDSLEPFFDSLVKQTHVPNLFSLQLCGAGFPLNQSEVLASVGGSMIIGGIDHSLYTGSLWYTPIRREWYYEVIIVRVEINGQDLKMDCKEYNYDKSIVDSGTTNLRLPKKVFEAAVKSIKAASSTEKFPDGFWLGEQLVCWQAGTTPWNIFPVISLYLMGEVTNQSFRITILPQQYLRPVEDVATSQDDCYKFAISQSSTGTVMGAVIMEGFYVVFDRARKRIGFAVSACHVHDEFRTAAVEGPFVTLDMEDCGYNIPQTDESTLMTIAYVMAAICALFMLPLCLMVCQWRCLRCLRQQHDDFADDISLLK
Summary of the method: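 Run at 37 °C and pH 4: compound and enzyme pre-incubated 20 min before FS-2 fluorogenic substrate started hydrolysis,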

SMILES | IC50 [1] [nM] | Ki (cathepsin D) [nM] | Ki (memapsin 2) [nM]
CCc1cncc(CNCC(O)C(Cc2ccccc2)NC(=O)c2cccc(C(=O)N(C)Cc3nc(C)cs3)c2)c1 (stereo not drawn) [N1-(4-((5-ethylpyridin-3-yl)methylamino)-3-hydroxy-1-phenylbutan-2-yl)-N3-methyl-N3-((4-methylthiazol-2-yl)methyl)isophthalamide] | < 1000 | < 300 | < 300
COc1cccc(CNCC(O)C(Cc2ccccc2)NC(=O)c2cc(C(=O)NC(C)c3ccccc3)c(C)cc2C)c1 (stereo not drawn) [N1-(3-hydroxy-4-(3-methoxybenzylamino)-1-phenylbutan-2-yl)-4,6-dimethyl-N3-(1-phenylethyl)isophthalamide] | < 1000 | < 300 | 301 to 500
CC(NC(=O)c1cc(C(=O)NC(Cc2ccccc2)C(O)CNCc2cccc(CF)c2)cc(N(C)S(C)(=O)=O)c1)c1ccccc1 (stereo not drawn) [N1-(4-(3-(fluoromethyl)benzylamino)-3-hydroxy-1-phenylbutan-2-yl)-5-(N-methylmethylsulfonamido)-N3-(1-phenylethyl)isophthalamide] | < 1000 | < 300 | < 300
COc1cccc(CNCC(O)C(Cc2ccccc2)NC(=O)c2cccc(C(=O)N(C)C(C)c3nc(C)cs3)c2)c1 (stereo not drawn) [N1-(3-hydroxy-4-(3-methoxybenzylamino)-1-phenylbutan-2-yl)-N3-methyl-N3-(1-(4-methylthiazol-2-yl)ethyl)isophthalamide] | < 1000 | < 300 | < 300
CC(NCC(O)C(Cc1ccccc1)NC(=O)c1cc(C(=O)NC(C)c2ccccc2)cc(N(C)S(C)(=O)=O)c1)c1cccnc1 (stereo not drawn) [N1-(3-hydroxy-1-phenyl-4-(1-(pyridin-3-yl)ethylamino)butan-2-yl)-5-(N-methylmethylsulfonamido)-N3-(1-phenylethyl)isophthalamide] | < 1000 | < 300 | < 300
CC(NC(=O)c1cc(C(=O)NC(Cc2ccccc2)C(O)CNCC2CCN(C(=O)OCc3ccccc3)CC2)cc(N(C)S(C)(=O)=O)c1)c1ccccc1 (stereo not drawn) [benzyl 4-((2-hydroxy-3-(3-(N-methylmethylsulfonamido)-5-(1-phenylethylcarbamoyl)benzamido)-4-phenylbutylamino)methyl)piperidine-1-carboxylate] | 1000 to 5000 | < 300 | < 300
Cc1cncc(CNCC(O)C(Cc2ccccc2)NC(=O)c2cccc(C(=O)N(C)Cc3nc(C)cs3)c2)c1 (stereo not drawn) [N1-(3-hydroxy-4-((5-methylpyridin-3-yl)methylamino)-1-phenylbutan-2-yl)-N3-methyl-N3-((4-methylthiazol-2-yl)methyl)isophthalamide] | < 1000 | < 300 | < 300
COc1cccc(CNCC(O)C(Cc2ccccc2)NC(=O)c2cc(C(=O)NC(C)c3ccccc3)c(F)cc2F)c1 (stereo not drawn) [4,6-difluoro-N1-(3-hydroxy-4-(3-methoxybenzylamino)-1-phenylbutan-2-yl)-N3-(1-phenylethyl)isophthalamide] | 1000 to 5000 | < 300 | > 501
CC(NC(=O)c1cc(C(=O)NC(Cc2ccccc2)C(O)CNCc2cccc(CN(C)C)c2)cc(N(C)S(C)(=O)=O)c1)c1ccccc1 (stereo not drawn) [N1-(4-(3-((dimethylamino)methyl)benzylamino)-3-hydroxy-1-phenylbutan-2-yl)-5-(N-methylmethylsulfonamido)-N3-(1-phenylethyl)isophthalamide] | < 1000 | > 501 | < 300
CC(NC(=O)c1cc(C(=O)NC(Cc2ccccc2)C(O)CNCc2cncc(N(C)C)c2)cc(N(C)S(C)(=O)=O)c1)c1ccccc1 (stereo not drawn) [N1-(4-((5-(dimethylamino)pyridin-3-yl)methylamino)-3-hydroxy-1-phenylbutan-2-yl)-5-(N-methylmethylsulfonamido)-N3-(1-phenylethyl)isophthalamide] | < 1000 | 301 to 500 | < 300
COc1cccc(F)c1CNCC(O)C(Cc1ccccc1)NC(=O)c1cc(C(=O)NC(C)c2ccccc2)cc(N(C)S(C)(=O)=O)c1 (stereo not drawn) [N1-(4-(2-fluoro-6-methoxybenzylamino)-3-hydroxy-1-phenylbutan-2-yl)-5-(N-methylmethylsulfonamido)-N3-(1-phenylethyl)isophthalamide] | < 1000 | < 300 | < 300
COc1ccc(CCNCC(O)C(Cc2ccccc2)NC(=O)c2cc(C(=O)NC(C)c3ccccc3)cc(N(C)S(C)(=O)=O)c2)cc1 (stereo not drawn) [N1-(3-hydroxy-4-(4-methoxyphenethylamino)-1-phenylbutan-2-yl)-5-(N-methylmethylsulfonamido)-N3-(1-phenylethyl)isophthalamide] | < 1000 | < 300 | < 300
CC(NC(=O)c1cc(C(=O)NC(Cc2ccccc2)C(O)CNCc2cccc(C(F)(F)F)c2)cc(N(C)S(C)(=O)=O)c1)c1ccccc1 (stereo not drawn) [N1-(3-hydroxy-1-phenyl-4-(3-(trifluoromethyl)benzylamino)butan-2-yl)-5-(N-methylmethylsulfonamido)-N3-(1-phenylethyl)isophthalamide] | < 1000 | < 300 | < 300
COc1ccccc1CCNCC(O)C(Cc1ccccc1)NC(=O)c1cc(C(=O)NC(C)c2ccccc2)cc(N(C)S(C)(=O)=O)c1 (stereo not drawn) [N1-(3-hydroxy-4-(2-methoxyphenethylamino)-1-phenylbutan-2-yl)-5-(N-methylmethylsulfonamido)-N3-(1-phenylethyl)isophthalamide] | 1000 to 5000 | < 300 | < 300
CC(C)c1cncc(CNCC(O)C(Cc2ccccc2)NC(=O)c2cc(C(=O)NC(C)c3ccccc3)cc(N(C)S(C)(=O)=O)c2)c1 (stereo not drawn) [N1-(3-hydroxy-4-((5-isopropylpyridin-3-yl)methylamino)-1-phenylbutan-2-yl)-5-(N-methylmethylsulfonamido)-N3-(1-phenylethyl)isophthalamide] | < 1000 | < 300 | < 300
CC(C)Cc1cccc(CNCC(O)C(Cc2ccccc2)NC(=O)c2cc(C(=O)NC(C)c3ccccc3)cc(N(C)S(C)(=O)=O)c2)c1 (stereo not drawn) [N1-(3-hydroxy-4-(3-isobutylbenzylamino)-1-phenylbutan-2-yl)-5-(N-methylmethylsulfonamido)-N3-(1-phenylethyl)isophthalamide] | < 1000 | < 300 | < 300
CC(NC(=O)c1cc(C(=O)NC(Cc2ccccc2)C(O)CNCC2CCCN(C)C2)cc(N(C)S(C)(=O)=O)c1)c1ccccc1 (stereo not drawn) [N1-(3-hydroxy-4-((1-methylpiperidin-3-yl)methylamino)-1-phenylbutan-2-yl)-5-(N-methylmethylsulfonamido)-N3-(1-phenylethyl)isophthalamide] | > 5000 | > 501 | > 501
CC(NC(=O)c1cc(C(=O)NC(Cc2ccccc2)C(O)CNCc2cncc(F)c2)cc(N(C)S(C)(=O)=O)c1)c1ccccc1 (stereo not drawn) [N1-(4-((5-fluoropyridin-3-yl)methylamino)-3-hydroxy-1-phenylbutan-2-yl)-5-(N-methylmethylsulfonamido)-N3-(1-phenylethyl)isophthalamide] | < 1000 | < 300 | < 300
CC(NC(=O)c1cc(C(=O)NC(Cc2ccccc2)C(O)CNCc2cnc3ccccc3c2)cc(N(C)S(C)(=O)=O)c1)c1ccccc1 (stereo not drawn) [N1-(3-hydroxy-1-phenyl-4-(quinolin-3-ylmethylamino)butan-2-yl)-5-(N-methylmethylsulfonamido)-N3-(1-phenylethyl)isophthalamide] | < 1000 | < 300 | < 300
CC(NC(=O)c1cc(C(=O)NC(Cc2ccccc2)C(O)CNCCN2CCCC2)cc(N(C)S(C)(=O)=O)c1)c1ccccc1 (stereo not drawn) [N1-(3-hydroxy-1-phenyl-4-(2-(pyrrolidin-1-yl)ethylamino)butan-2-yl)-5-(N-methylmethylsulfonamido)-N3-(1-phenylethyl)isophthalamide] | > 5000 | > 501 | > 501
COc1cccc(CNCC(O)C(Cc2ccccc2)NC(=O)c2cc(C(=O)NC(C)c3ccccc3)cc(N(C)S(C)(=O)=O)c2)c1F (stereo not drawn) [N1-(4-(2-fluoro-3-methoxybenzylamino)-3-hydroxy-1-phenylbutan-2-yl)-5-(N-methylmethylsulfonamido)-N3-(1-phenylethyl)isophthalamide] | < 1000 | < 300 | < 300
